Experimental findings from PMC11423305, “Structure-Based Design of CBP/EP300 Degraders: When Cooperativity Overcomes Affinity” (JACS Au, 2024) are described below.

Experiment [1] deals with CRBN and CBP catalytic core (Homo sapiens, UniProt Q92793+Q96SW2). Briefly: FluoPPI cellular ternary complex formation, CBP catalytic core. The experiment is classed as cell-based. To be noted: U2OS cells, 6 h.
In the next experiment the test system is LP1 cells. Briefly: Cell viability (resazurin), LP1. The experiment is classed as cell-based. To be noted: Homo sapiens, LP-1, 72 h, 3 days. How it is done:
The primer sequences used were:
Gene Gene ID Forward Primer (5’-3’) Reverse primer (5’-3’)
myc NM_001354870.1 GTAGTGGAAAACCAGCC […]
crebbp NM_004380.3 TGTCACAGGGACAGGTGC […]
Cells were plated onto 96 well plates at the following densities in 90 μl volume: 3x104
LP1 cells/well or 5x10^3 LNCaP cells/well both plated same day as treatment, or 2x104
MM1S cells/well or 1.5x10^3 SH-SY5Y cells/well both plated day prior to treatment.
Compounds were added in 10 μl to give the stated concentrations with a final
concentration of 0.1 % DMSO. Following 3 days of compound treatment, resazurin
(Acros Organics, 189900010) was added at a f inal concentration of 86 μM and incubated
for the following times: MM1S 5 h, LP1 3 h, LNCaP 1 h 30 min, SH-SY5Y 6 h.
Fluorescence (excitation = 560 nm, emission = 590 nm) was measured using a
spectraMax M5 microplate reader (Molecular Devices) and cell viability was calculated
relative to DMSO treated cells on the same plate. Data was fitted using a four -parameter
dose-response curve in GraphPad Prism v. 9.5.1, where the top is fixed at 100 %. GI50
values were calculated as the concentration required to inhibit cell viability to 50 %
relative to DMSO treated cells after 3 days.
Sample digestion and clean up: Treated cells were washed in PBS and cell pellets
were then lysed in 4 % SDS/Tris-HCl, treated with High Intensity Focused Ultrasound […]

Sequence of CRBN and CBP catalytic core (Q92793 1081-1700): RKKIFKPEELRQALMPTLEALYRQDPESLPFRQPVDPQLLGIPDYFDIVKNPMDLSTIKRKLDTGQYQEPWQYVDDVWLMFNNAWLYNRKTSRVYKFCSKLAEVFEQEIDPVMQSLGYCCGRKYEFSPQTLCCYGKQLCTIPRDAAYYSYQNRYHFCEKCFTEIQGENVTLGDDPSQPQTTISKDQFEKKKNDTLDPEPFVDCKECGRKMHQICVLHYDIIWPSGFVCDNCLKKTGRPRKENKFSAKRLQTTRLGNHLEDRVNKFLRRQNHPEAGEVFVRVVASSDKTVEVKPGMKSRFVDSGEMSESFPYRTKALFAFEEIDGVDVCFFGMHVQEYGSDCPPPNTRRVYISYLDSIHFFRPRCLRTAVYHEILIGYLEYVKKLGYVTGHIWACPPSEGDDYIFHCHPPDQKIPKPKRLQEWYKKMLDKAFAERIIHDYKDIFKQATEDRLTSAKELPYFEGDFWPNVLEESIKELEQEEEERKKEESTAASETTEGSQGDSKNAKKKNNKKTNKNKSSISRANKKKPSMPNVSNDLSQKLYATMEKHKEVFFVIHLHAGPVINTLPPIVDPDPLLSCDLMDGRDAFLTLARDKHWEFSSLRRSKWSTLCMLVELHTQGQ
Sequence of CRBN and CBP catalytic core (Q96SW2 whole entry): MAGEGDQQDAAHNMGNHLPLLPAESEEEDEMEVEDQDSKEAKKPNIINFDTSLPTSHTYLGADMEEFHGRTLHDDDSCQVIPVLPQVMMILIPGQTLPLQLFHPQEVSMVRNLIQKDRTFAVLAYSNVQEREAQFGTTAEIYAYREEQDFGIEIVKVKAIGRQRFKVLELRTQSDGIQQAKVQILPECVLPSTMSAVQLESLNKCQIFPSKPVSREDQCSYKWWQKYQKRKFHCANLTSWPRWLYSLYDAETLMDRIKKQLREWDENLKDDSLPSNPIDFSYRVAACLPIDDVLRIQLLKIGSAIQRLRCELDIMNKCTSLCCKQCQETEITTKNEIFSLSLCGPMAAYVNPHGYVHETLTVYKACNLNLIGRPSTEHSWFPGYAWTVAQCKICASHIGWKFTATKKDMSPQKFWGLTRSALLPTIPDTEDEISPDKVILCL

In the case of `Cc1cc2c(NC(=O)c3cc(NC(=O)CCCCCCCCCCNc4cccc5c4C(=O)N(C4CCC(=O)NC4=O)C5=O)cc(-c4ccn(C)n4)c3)cccc2nn1` (centres unmarked) [dCE-2], the “ternary complex formation in cells with CBP catalytic core” value in experiment [1] is “able to induce ternary complex formation”. The compound further gave a GI50 in the experiment on LP1 cells of 1500 nM.
